Values quoted from earlier work as cited in patent US8048850B2, “Covalent conjugates between artemisinin-related endoperoxides and iron-carrying proteins and methods of use” (University of Washington, priority 2002, dated 2011).

Conditions: cancer patient; oral dose of 50 mg per day; intramuscular dose of 60 mg/day; period of 9 months

C[C@H]1[C@H](OC(=O)CCC(=O)O)O[C@@H]2O[C@@]3(C)CC[C@H]4[C@H](C)CC[C@@H]1[C@@]24OO3 [artesunate]
adverse side effects: No apparent adverse side effects
